Data published in patent publication US9499464B2, “Opsin-binding ligands, compositions and methods of use” (priority 2011, dated 2016).

Tested on: P23H opsin
Experiment: Rhodopsin purification and regeneration (P23H cells treated with compound, regenerated with 9-cis-retinal, 480-500 nm absorbance)
Details: P23H cells, compound concentration 10 μM, 48 hours, regeneration with 9-cis-retinal (20 μM)

| Structure (SMILES) | Fold Increase Over Control (480-500 nm absorbance as fold increase over the DMSO control) |
| --- | --- |
| CC1(C)CCCC2=C1CCC2=O [Compound 56, 4,4-dimethyl-2,3,4,5,6,7-hexahydro-1H-inden-1-one] | 1.7 fold |
| CC1(C)CCC(C)(C)C2CC(=O)C=C21 (stereo not drawn) [Compound 41, 4,4,7,7-tetramethyl-5,6,7,7a-tetrahydro-1H-inden-2(4H)-one] | 1.9 fold |
| CC(C)(C)C1=CC(=O)[C@H]2C(C)(C)CCC[C@@]12C (racemic) [Compound 43, (±)-(3aR,7aS)-3-tert-butyl-3a,7,7-trimethyl-3a,4,5,6,7,7a-hexahydro-1H-inden-1-one] | 1.7 fold |
| CC1(C)CCC[C@@]2(C)C=C[C@H](O)[C@@H]12 (racemic) [Compound 36, (±)-(1S,3aS,7aS)-3a,7,7-trimethyl-3a,4,5,6,7,7a-hexahydro-1H-inden-1-ol] | 2.0 fold |
| CC1(C)CCCC2=CC(=O)CC21 (stereo not drawn) [Compound 27, 7,7-dimethyl-5,6,7,7a-tetrahydro-1H-inden-2(4H)-one] | 2.0 fold |
| CC(C)[C@@H]1CC(=O)[C@H]2C(C)(C)CCC[C@@]12C (racemic) [Compound 46, (±)-(3S,3aS,7aS)-3-isopropyl-3a,7,7-trimethyloctahydro-1H-inden-1-one] | 1.8 fold |
| CC1(C)CCCC2CC(=NO)CC21 (stereo not drawn) [Compound 55, 4,4-dimethylhexahydro-1H-inden-2(3H)-one oxime] | 2.8 fold |
| CON=C1C=C2C(C)(C)CCCC2(C)C1 (stereo not drawn) [Compound 31, 4,4,7a-trimethyl-5,6,7,7a-tetrahydro-1H-inden-2(4H)-one O-methyl oxime] | 1.6 fold |
| CC1(C)CCC[C@@]2(C)C(=NO)CC[C@@H]12 (racemic) [Compound 33, (±)-(3aS,7aR)-4,4,7a-trimethyloctahydro-1H-inden-1-one oxime] | 1.8 fold |
| CC1(C)CCC[C@@]2(C)CC(=O)C[C@@H]12 (racemic) [Compound 40, (±)-(3aS,7aS)-3a,7,7-trimethylhexahydro-1H-inden-2(3H)-one] | 1.8 fold |
| CC(C)C1=CC(=NO)[C@H]2C(C)(C)CCC[C@@]12C (racemic) [Compound 45, (±)-(3aR,7aS)-3-isopropyl-3a,7,7-trimethyl-3a,4,5,6,7,7a-hexahydro-1H-inden-1-one oxime] | 3.0 fold |
| CC1(C)CCC[C@@]2(C)C(c3ccccc3)=CC(=O)[C@@H]12 (racemic) [Compound 28, (±)-(3aR,7aS)-3a,7,7-trimethyl-3-phenyl-3a,4,5,6,7,7a-hexahydro-1H-inden-1-one] | 1.7 fold |

Same assay, conditions: P23H cells, compound concentration 20 μM, 48 hours, regeneration with 9-cis-retinal (20 μM)

| Structure (SMILES) | Fold Increase Over Control (480-500 nm absorbance as fold increase over the DMSO control) |
| --- | --- |
| CC1=CC(=NO)[C@H]2C(C)(C)CCC[C@@]12C (racemic) [Compound 14, (±)-(3aR,7aS)-3,3a,7,7-tetramethyl-3a,4,5,6,7,7a-hexahydro-1H-inden-1-one oxime] | 2.4 fold |
| C[C@@H]1CC(=O)C2=CCCC(C)(C)[C@H]21 (racemic) [Compound 71, (±)-(3R,3aR)-3,4,4-trimethyl-2,3,3a,4,5,6-hexahydro-1H-inden-1-one] | 2.2 fold |
| CC1=C(C)[C@H]2[C@H](CCCC2(C)C)C1=O (racemic) [Compound 64, (±)-(3aS,7aS)-2,3,4,4-tetramethyl-3a,4,5,6,7,7a-hexahydro-1H-inden-1-one] | 2.1 fold |
| COC(=O)C1=C[C@]2(C)CCCC(C)(C)[C@@H]2C1 (racemic) [Compound 8, (±)-(3aS,7aS)-methyl 3a,7,7-trimethyl-3a,4,5,6,7,7a-hexahydro-1H-indene-2-carboxylate] | 2.1 fold |
| CC1(C)CCC(C)(C)[C@H]2OC(=O)C[C@H]21 (racemic) [Compound 3, (±)-(3aS,7aS)-4,4,7,7-tetramethylhexahydrobenzofuran-2(3H)-one] | 2.2 fold |
| CC(C)[C@@H]1C[C@H](O)[C@H]2C(C)(C)CCC[C@@]12C (racemic) [Compound 58, (±)-(1S,3S,3aS,7aS)-3-isopropyl-3a,7,7-trimethyloctahydro-1H-inden-1-ol] | 2.0 fold |
| C[C@@H]1CC(=NO)[C@H]2C(C)(C)CCC[C@@]12C (racemic) [Compound 16, (±)-(3R,3aS,7aS)-3,3a,7,7-tetramethyloctahydro-1H-inden-1-one oxime] | 2.2 fold |
| CC1(C)CCC[C@@]2(C)CC(CO)C[C@@H]12 (mixture of isomers) [Compound 26, (±)-((3aS,7aS)-3a,7,7-trimethyloctahydro-1H-inden-2-yl)methanol] | 2.3 fold |
| CC1(C)CCC(C)(C)[C@H]2CC(=O)C[C@H]21 [Compound 70, (3aR,7aS) and (3aS,7aR)-4,4,7,7-tetramethylhexahydro-1H-inden-2(3H)-one] | 1.9 fold |
| C[C@H]1C(=O)C=C2C(C)(C)CCC[C@]21C (racemic) [Compound 20, (±)-(1R,7aS)-1,4,4,7a-tetramethyl-5,6,7,7a-tetrahydro-1H-inden-2(4H)-one] | 1.9 fold |
| CC1(C)CCC[C@@]2(C)CC[C@H](O)[C@@H]12 (racemic) [Compound 60, (±)-(1S,3aS,7aS)-3a,7,7-trimethyloctahydro-1H-inden-1-ol] | 2.1 fold |
| CC1(C)CCC(C)(C)[C@H]2CC(=O)C=C21 [Compound 69a, (+)-4,4,7,7-tetramethyl-5,6,7,7a-tetrahydro-1H-inden-2(4H)-one] | 2.0 fold |
| C[C@H]1C(=O)C=C2[C@H]1CCCC2(C)C (racemic) [Compound 67, (±)-(1R,7aS)-1,4,4-trimethyl-5,6,7,7a-tetrahydro-1H-inden-2(4H)-one] | 1.8 fold |
| CC1=C(C)[C@]2(C)CCCC(C)(C)[C@@H]2[C@H]1O (racemic) [Compound 66, (±)-(1R,3aR,7aS)-2,3,3a,7,7-pentamethyl-3a,4,5,6,7,7a-hexahydro 1H inden-1-ol] | 1.9 fold |
| CC1(C)CCC(C)(C)C2CC(=O)C=C21 (single isomer, unassigned) [Compound 69b, (−)-4,4,7,7-tetramethyl-5,6,7,7a-tetrahydro-1H-inden-2(4H)-one] | 1.8 fold |
| CC1(C)CCC[C@@]2(C)[C@@H](O)CC[C@@H]12 (racemic) [Compound 18, (±)-(1S,3aS,7aR)-4,4,7a-trimethyloctahydro-1H-inden-1-ol] | 1.7 fold |
| CC1=C(C)[C@]2(C)CCCC(C)(C)[C@@H]2C1=O (racemic) [Compound 65, (±)-(3aR,7aS)-2,3,3a,7,7-pentamethyl-3a,4,5,6,7,7a-hexahydro-1H-inden-1-one] | 1.8 fold |

Tested on: not given
Experiment: not given
Details: not given

| Structure (SMILES) | melting point |
| --- | --- |
| CC1(C)CCC(C)(C)[C@H]2CC(=O)C=C21 [Compound 69a, (+)-4,4,7,7-tetramethyl-5,6,7,7a-tetrahydro-1H-inden-2(4H)-one] | 35 to 38 °C |
